Test results: patent publication US12509373B2, “Composition and method for the removal of biofilm” (LANXESS Corporation, priority 2020, dated 2025)

Tests used:
[1] = test system: Desulfovibrio vulgaris biofilm; assay: Biofilm removal, Crystal Violet Assay (anaerobic, 24 h treatment of pre-formed biofilm); assay type: cell-based
Protocol: A lyophilized D. vulgaris pure culture received from ATTCC was resuspended in 500 ul of MB 1249. Aseptically, the content was transferred to a 5¬mL tube of MB1249 medium. The culture was incubated in an anaerobic chamber at 30° C. for 72 hrs. Subsequently, a stock culture with a final concentration of 25% glycerol was prepared by adding equal volumes of culture and 50% glycerol. 1 ml of culture was then transferred to 2-ml cryogenic vials and stored AT-80c. The purity of the stock culture was evaluated through PCR, by amplifying the 16S rDNA region, and thus, it was verified that the original ATCC sample was a pure culture.
A 10% culture was prepared by taking 1 mL of stock culture and adding it to 9 mL of MB1249, then the culture was placed into a 30° C. side incubator within the chamber and incubated for 72 hours. After 72 hours of incubation, the 10-ml D. vulgaris culture was added to 40 ml of MB1249 medium and incubated for 48 hours. After the incubation time, the optical density of the culture was determined by taking 100 μL of culture and adding it to 900 μL of MB1249 in a cuvette. Another cuvette was filled with 1 mL of MB1249 for a blank. Then, each of culture cuvettes were read and their optical density (O.D.) was recorded by using the Thermofisher Spectronic 200 Spectrophotometer at 620 nm. Using a C1V1=C2V2 calculation and the optical density, the final concentration of culture added to the 96 well plates was ˜0.1 O.D. Then, NUNC Round bottom 96 well plates were filled with culture and anaerobic PBS+10% MB1249. The plates were placed into the side incubator of the anaerobic chamber at 30° C. for 24 hours to form biofilm.
After 24 hours of incubation at 30° C., all plates were removed from the incubator and the volume from each well was taken out with a multi-channel pipette. Then, the wells were re-filled with PBS+10% MB1249 and treatments.
The sugar analogues used in the treatment were α-Methyl D-Mannoside (αMM) and 2-Deoxy-D-Glucose (2DG). Both αMM and 2DG were purchased from Sigma. Stocks were prepared (W/V) by weighing sugar and adding anaerobic water inside the anaerobic chamber. The Glutaraldehyde, AQUCAR™ GA50 (“Glutaraldehyde”), was prepared outside of the chamber (V/V) as a safety measure. Each of the components were added at their respective concentrations for a final volume of 200 ul per well. In Table 3, the concentrations used for the synergy experiments are listed. Each experiment was done with at least six replicates for different treatments and at least 8 replicates for non-treatment controls.
Plates were then sealed with a titer-top and placed into anaerobic boxes with a gas pack. Then, incubated in an aerobic shaking incubator, 30° C. at 115 RPM. After 24 hours, the plates were processed using a Crystal Violet Assay.
After 24 hours of treatment, all the treatment solution was gently removed from plates using a multi-channel pipette. Then, 250 μL of DI water was re-filled into the wells. This step was then repeated so the plates were each rinsed twice. If residual DI water was in plates, they were inverted and gently patted onto a thick paper towel. Then, the plates were air dried in a ventilated hood.
To fix the biofilm in the wells, 250 μL per well of methanol was used, waiting time 5 minutes. This methanol was then removed and allowed to air dry. […] Then, the plates were placed into the Biotek Cytation 5, and the optical density (OD) was read at 600 nm. […]

[2] = test system: anaerobic D. vulgaris biofilms; settings: high levels of sugar analogs needed; WO2019/018087; cited from earlier work

| SMILES | % OD compared to no-treatment control ([1]; Glutaraldehyde 25 ppm alone (2DG 0 ppm), 2DG combination experiment) [%] | % OD compared to no-treatment control ([1]; Glutaraldehyde 25 ppm alone (αMM 0 ppm), αMM combination experiment) [%] | % OD compared to no-treatment control ([1]; standalone, 2500 ppm) [%] | % OD compared to no-treatment control ([1]; standalone, 2000 ppm) [%] | dispersal of anaerobic D. vulgaris biofilms [2] |
| --- | --- | --- | --- | --- | --- |
| O=CCCCC=O [Glutaraldehyde] | 92.7 | 99.3 | 97.4 |  |  |
| CO[C@H]1O[C@H](CO)[C@@H](O)[C@H](O)[C@@H]1O [αMM, α-Methyl D-Mannoside] |  |  |  | 100.3 | disperse anaerobic D. vulgaris biofilms |
| O=CC[C@@H](O)[C@H](O)[C@H](O)CO [2DG, 2-Deoxy-D-Glucose] |  |  |  | 101.7 | disperse anaerobic D. vulgaris biofilms |
